Tested on: diarrhea-predominant IBS subjects
Assay: 3007 Study: open-label 52-week safety study, adverse events and withdrawals
Settings: Study 3007

Cc1nccn1C[C@H]1CCc2c(c3cccc4c3n2CCC4)C1=O [cilansetron, (R)-(−)-4,5,6,8,9,10-hexahydro-10-[(2-methyl-1H-imidazol-1-yl)methyl]-11H-pyrido-[3,2,1-jk]-carbazol-11-one]
SAE: Hepatobiliary Disorders (P/C): 0 n (%) | SAE: Immune System Disorders (P/C): 1 (<1%) n (%) | SAE: Infections and Infestations (P/C): 2 (<1%) n (%) | SAE: Injury, Poisoning and Procedural Complications (P/C): 0 n (%) | SAE: Irritable Bowel Syndrome Aggravated (P/C): 0 n (%) | SAE: Leiomyoma NOS (P/C): 0 n (%) | SAE: Loss of Consciousness (P/C): 0 n (%) | SAE: Myocardial Infarction (P/C): 0 n (%) | SAE: Neoplasms Benign, Malignant and Unspecified (Incl Cysts and Polyps) (P/C): 3 (1%) n (%) | SAE: Nervous System Disorders (P/C): 0 n (%) | SAE: Non-Accidental Overdose (P/C): 0 n (%) | SAE: Ovarian Cancer NOS* (P/C): 0 n (%) | SAE: Ovarian Cystadenofibroma* (P/C): 1 (<1%) n (%) | SAE: Pregnancy NOS* (P/C): 0 n (%) | SAE: Pregnancy, Puerperium and Perinatal Conditions (P/C): 0 n (%) | SAE: Psychiatric Disorders (P/C): 1 (<1%) n (%) | SAE: Psychotic Disorder NOS (P/C): 1 (<1%) n (%) | SAE: Renal and Urinary Disorders (P/C): 1 (<1%) n (%) | SAE: Reproductive System and Breast Disorders (P/C): 0 n (%) | SAE: Respiratory, Thoracic and Mediastinal Disorders (P/C): 1 (<1%) n (%) | SAE: Sinusitis Acute NOS (P/C): 1 (<1%) n (%) | SAE: Status Epilepticus (P/C): 0 n (%) | SAE: Suicidal Ideation (P/C): 1 (<1%) n (%) | SAE: Supraventricular Tachycardia (P/C): 1 (<1%) n (%) | SAE: Urinary Tract Infection NOS (P/C): 1 (<1%) n (%) | SAE: Uterine Polyp NOS* (P/C): 0 n (%) | SAE: Vaginal Cyst* (P/C): 0 n (%) | TEAEs that led to permanent discontinuation of study medication (P/C): 18% | Total Number of Subjects with at Least One Serious Adverse Event (P/C): 10 (4%) n (%) | subjects with at least one TEAE (P/C): 78% | subjects with at least one treatment-emergent SAE (P/C): 4% | withdrawal for AE (P/C): 17% | withdrawal for lack of efficacy (P/C): 21% | Number of deaths (P/C (N = 279)): 0 n (%) | Number of subjects who permanently discontinued study medication due to a TEAE (as reported on the AE CRF) (P/C (N = 279)): 50 (18) n (%) | Number of subjects with at least one AE of special interest (P/C (N = 279)): 185 (66) n (%) | Number of subjects with at least one SAE (P/C (N = 279)): 10 (4) n (%) | Number of subjects with at least one TEAE (P/C (N = 279)): 217 (78) n (%) | Number of subjects with at least one TEAE leading to dose reduction (P/C (N = 279)): 4 (1) n (%) | Number of subjects with at least one related TEAE (P/C (N = 279)): 150 (54) n (%) | Number of subjects with at least one severe TEAE (P/C (N = 279)): 44 (16) n (%) | Number of subjects who died (P/C, all enrolled): 0 n (%) | Primary reason for withdrawal: Adverse event and lack of efficacy (P/C, all enrolled): 34 (12) n (%) | Primary reason for withdrawal: Baseline complaint/adverse event (P/C, all enrolled): 14 (5) n (%) | Primary reason for withdrawal: Lack of efficacy (P/C, all enrolled): 25 (9) n (%) | TEAE incidence: blood CK increased (female subjects): 1% | TEAE incidence: constipation (female subjects): 28% | TEAE incidence: diarrhea excluding infective (female subjects): 9% | TEAE incidence: nausea and vomiting symptoms (female subjects): 8% | TEAE incidence: sinusitis NOS (female subjects): 9% | TEAE incidence: urinary tract infections (female subjects): 8% | prevalence of constipation overall (fifth (>12 months) interval): 3% | prevalence of TEAEs overall (first three-month interval): 62% | prevalence of constipation overall (first three-month interval): 17% | subjects discontinued due to AEs (first three-month interval): 7% | prevalence of TEAEs overall (fourth three-month interval): 54% | prevalence of constipation overall (fourth three-month interval): 2% | subjects discontinued due to AEs (fourth three-month interval): 2% | prevalence of TEAEs overall (last (>12 months) interval): 70% | TEAE incidence: blood CK increased (male subjects): 12% | TEAE incidence: constipation (male subjects): 15% | TEAE incidence: diarrhea excluding infective (male subjects): 3% | TEAE incidence: nausea and vomiting symptoms (male subjects): 3% | TEAE incidence: sinusitis NOS (male subjects): 3% | TEAE incidence: urinary tract infections (male subjects): 1% | subjects who discontinued due to the SAEs (of 29 subjects with SAEs): Eleven | subjects with at least one constipation episode reported as related to study medication (of the 128 subjects with constipation): 124 subjects | SAE: Abdominal Pain Upper (overall): 1 (<1%) n (%) | SAE: Adenomyosis* (overall): 1 (<1%) n (%) | SAE: Angina Pectoris (overall): 2 (<1%) n (%) | SAE: Appendicitis (overall): 1 (<1%) n (%) | SAE: Asthma NOS (overall): 1 (<1%) n (%) | SAE: Benign Ovarian Tumour* (overall): 1 (<1%) n (%) | SAE: Bladder Prolapse (overall): 1 (<1%) n (%) | SAE: Bone Neoplasm Malignant (overall): 1 (<1%) n (%) | SAE: Breast Cancer NOS* (overall): 2 (<1%) n (%) | SAE: Bronchopneumonia NOS (overall): 1 (<1%) n (%) | SAE: Calculus Ureteric (overall): 1 (<1%) n (%) | SAE: Cardiac Disorders (overall): 4 (<1%) n (%) | SAE: Chest Pain (overall): 2 (<1%) n (%) | SAE: Cholelithiasis (overall): 1 (<1%) n (%) | SAE: Colitis Ischaemic (overall): 1 (<1%) n (%) | SAE: Depression (overall): 1 (<1%) n (%) | SAE: Endometriosis* (overall): 1 (<1%) n (%) | SAE: Fibroma NOS (overall): 1 (<1%) n (%) | SAE: Food Allergy (overall): 1 (<1%) n (%) | SAE: Gastritis NOS (overall): 1 (<1%) n (%) | SAE: Gastroenteritis NOS (overall): 1 (<1%) n (%) | SAE: Gastrointestinal Disorders (overall): 4 (<1%) n (%) | SAE: General Disorders and Administration Site Conditions (overall): 2 (<1%) n (%) | SAE: Hallucination NOS (overall): 1 (<1%) n (%) | SAE: Hallucination, Auditory (overall): 1 (<1%) n (%) | SAE: Heat Exhaustion (overall): 1 (<1%) n (%) | SAE: Hepatitis NOS (overall): 1 (<1%) n (%) | SAE: Hepatobiliary Disorders (overall): 2 (<1%) n (%) | SAE: Immune System Disorders (overall): 1 (<1%) n (%) | SAE: Infections and Infestations (overall): 3 (<1%) n (%) | SAE: Injury, Poisoning and Procedural Complications (overall): 2 (<1%) n (%) | SAE: Irritable Bowel Syndrome Aggravated (overall): 1 (<1%) n (%) | SAE: Leiomyoma NOS (overall): 1 (<1%) n (%) | SAE: Loss of Consciousness (overall): 2 (<1%) n (%) | SAE: Myocardial Infarction (overall): 1 (<1%) n (%) | SAE: Neoplasms Benign, Malignant and Unspecified (Incl Cysts and Polyps) (overall): 6 (1%) n (%) | SAE: Nervous System Disorders (overall): 2 (<1%) n (%) | SAE: Non-Accidental Overdose (overall): 1 (<1%) n (%) | SAE: Ovarian Cancer NOS* (overall): 1 (<1%) n (%) | SAE: Ovarian Cystadenofibroma* (overall): 1 (<1%) n (%) | SAE: Pregnancy NOS* (overall): 1 (<1%) n (%) | SAE: Pregnancy, Puerperium and Perinatal Conditions (overall): 1 (<1%) n (%) | SAE: Psychiatric Disorders (overall): 1 (<1%) n (%) | SAE: Psychotic Disorder NOS (overall): 1 (<1%) n (%) | SAE: Renal and Urinary Disorders (overall): 2 (<1%) n (%) | SAE: Reproductive System and Breast Disorders (overall): 2 (<1%) n (%) | SAE: Respiratory, Thoracic and Mediastinal Disorders (overall): 1 (<1%) n (%) | SAE: Sinusitis Acute NOS (overall): 1 (<1%) n (%) | SAE: Status Epilepticus (overall): 1 (<1%) n (%) | SAE: Suicidal Ideation (overall): 1 (<1%) n (%) | SAE: Supraventricular Tachycardia (overall): 1 (<1%) n (%) | SAE: Urinary Tract Infection NOS (overall): 1 (<1%) n (%) | SAE: Uterine Polyp NOS* (overall): 1 (<1%) n (%) | SAE: Vaginal Cyst* (overall): 1 (<1%) n (%) | TEAE incidence: GI disorders (overall): 50% | TEAE incidence: Infections and infestations (overall): 32% | TEAE incidence: Investigations (overall): 24% | TEAE incidence: Musculoskeletal and connective tissue disorders (overall): 16% | TEAE incidence: Nervous system disorders (overall): 12% | TEAE incidence: abdominal pain NOS (overall): 7% | TEAE incidence: back pain (overall): 3% | TEAE incidence: blood CK increased (overall): 5% | TEAE incidence: constipation (overall): 24% | TEAE incidence: diarrhea NOS (overall): 6% | TEAE incidence: fecal occult blood positive (overall): 6% | TEAE incidence: flatulence (overall): 5% | TEAE incidence: headache NOS (overall): 6% | TEAE incidence: nasopharyngitis (overall): 5% | TEAE incidence: nausea (overall): 5% | TEAE incidence: sinusitis NOS (overall): 7% | TEAE incidence: upper respiratory tract infection NOS (overall): 5% | TEAE incidence: urinary tract infection NOS (overall): 5% | TEAEs that led to dose reduction (overall): 2% | TEAEs that led to permanent discontinuation: GI disorders (overall): 12% | TEAEs that led to permanent discontinuation: abdominal pain NOS (overall): 2% | TEAEs that led to permanent discontinuation: diarrhea NOS (overall): 1% | TEAEs that led to permanent discontinuation: flatulence (overall): 1% | Total Number of Subjects with at Least One Serious Adverse Event (overall): 29 (5%) n (%) | discontinued study medication due to constipation (overall): 5% | dose reduction due to constipation (overall): 1% | overall incidence of TEAEs possibly, probably, or unlikely related to study medication (overall): 56% | related TEAE: abdominal pain NOS (overall): 6% | related TEAE: blood CK increased (overall): 3% | related TEAE: constipation (overall): 23% | related TEAE: diarrhea NOS (overall): 3% | related TEAE: fecal occult blood positive (overall): 3% | related TEAE: flatulence (overall): 4% | related TEAE: headache NOS (overall): 4% | related TEAE: nausea (overall): 3% | severe TEAE: abdominal pain NOS (overall): 2% | severe TEAE: constipation (overall): 3% | severe TEAE: headache NOS (overall): 1% | special interest TEAEs (overall): 69% | subjects with at least one TEAE (overall): 82% | subjects with severe TEAEs (overall): 18% | withdrawal for AE (combined categories) (overall): 15% | withdrawal for lack of efficacy (combined categories) (overall): 18% | prevalence of TEAEs overall (second three-month interval): 55% | prevalence of constipation overall (second three-month interval): 9% | subjects discontinued due to AEs (second three-month interval): 6% | prevalence of TEAEs overall (third three-month interval): 54% | prevalence of constipation overall (third three-month interval): 5% | subjects discontinued due to AEs (third three-month interval): 2%

From patent US20070093520A1, “Method of treatment of diarrhea-predominant irritable bowel syndrome in a subject” (priority 2005, published 2007)
